Experiment [1] concerns MAPK14 (rat). The experiment can be described thus: Cell-Based Assay. The following applies: mesencephalic neurons.
For experiment [2], the system named is MAPK14 (rat). The experiment can be described thus: Cell-Based Assay. The following applies: mesencephalic neurons. This is another data set of the same source.
In experiment [3] the test system is MAPK14 (rat). The experiment can be described thus: Animal Model. As to conditions: mesencephalon tissue.

Where “and” joins values, the source holds several entries; their conditions need not be identical. Equal entries are not always repeated.

On to `O=[N+]([O-])c1ccc(-c2nc(-c3ccc(F)cc3)c(-c3ccncc3)[nH]2)cc1`, for which the results for the cell count in the experiment with MAPK14 (rat) [1], with MAPK14 (rat) [2] and in the experiment with MAPK14 (rat) [3] were 421 cm-2, 283 cm-2 and 3020, respectively. Further, the response in the experiment on MAPK14 (rat) [1] was 454 cm2; with MAPK14 (rat) [2], 400 cm2 and 570 cm2.

On to `Oc1ccc(-c2nc(-c3ccc(F)cc3)c(-c3ccncc3)[nH]2)cc1`, for which, in the experiment on MAPK14 (rat) [2], the cell count came to 283 cm-2; the response was 600 cm2 and 473 cm2.

Source of the values: the Kinase Knowledgebase extract (Sharma et al. 2016).
